The target of one assay is T1, NDM-1 (Klebsiella pneumoniae, UniProt C7C422).
T1 construct: made in house
The assay can be described thus: Inhibition of IPM hydrolysis by purified NDM-1, Ki by Lineweaver-Burk plots. It is filed as biochemical. Conditions: IPM as substrate, competitive model, mean of three replicates; read-out: Inhibition constant Ki NDM-1. As to the method: (§1) MBL (10 nM) was mixed with the inhibitors and incubated for 5 min at 30°C. IPM was added to reach a concentration of 150 μM, and the velocity of IPM hydrolysis was monitored at 298 nm. The assay was performed at 30°C using 10 mM HEPES (pH 7.5) buffer containing 200 mM NaCl and 50 μg/ml bovine serum albumin (BSA) for IMP-1, NDM-1, VIM-2, and SMB-1. For SFH-1 and L1, another 10 mM HEPES (pH 7.5) buffer containing 200 mM NaCl, 20 μM ZnSO4, and 50 μg/ml BSA was used.
(§2) Initial velocities (vo) were measured after varying the concentrations of IPM and inhibitors, and inverse velocities (1/vo) were plotted against inverse IPM concentrations […]. Lineweaver-Burk plots were constructed to obtain the inhibition constant (Ki) with the competitive inhibition model using the SigmaPlot 13 suite (Hulinks).

A further assay deals with T2, IMP-1 (Serratia marcescens, UniProt P52699).
T2 construct: made in house
T2 sequence (P52699 19-246 limits assumed): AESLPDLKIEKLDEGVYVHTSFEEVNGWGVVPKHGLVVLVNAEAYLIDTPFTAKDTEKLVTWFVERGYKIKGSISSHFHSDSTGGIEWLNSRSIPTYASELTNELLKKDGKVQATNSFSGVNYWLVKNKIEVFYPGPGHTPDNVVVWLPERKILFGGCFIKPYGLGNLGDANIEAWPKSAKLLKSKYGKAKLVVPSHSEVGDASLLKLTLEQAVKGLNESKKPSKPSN
Put plainly: Inhibition of IPM hydrolysis by purified IMP-1, Ki by Lineweaver-Burk plots. It is filed as biochemical. As to the method: as §1, §2

A further assay has as its target T3, VIM-2 (Escherichia coli, UniProt Q5U7L7).
T3 construct: made in house
Put plainly: Inhibition of IPM hydrolysis by purified VIM-2, Ki by Lineweaver-Burk plots. The class given is biochemical. Particulars: IPM as substrate, competitive model, mean of three replicates; read-out: Inhibition constant Ki VIM-2. As to the method: as §1, §2

Assay [1] concerns IMP producers rather than NDM/VIM producers. Particulars: cited from earlier work.
For the next assay, the system named is E. coli DH5α/pBC-VIM-2. Put plainly: Susceptibility and checkerboard testing, VIM-2-producing E. coli. It is filed as cell-based, Escherichia coli. Particulars: Escherichia coli, read-out: MIC of CAZ without inhibitor. As to the method: MICs were determined via the microdilution method according to the CLSI guidelines ([38]). In brief, 5 × 10^4 bacterial cells were inoculated in 100 μl of cation-adjusted Mueller-Hinton broth (Becton, Dickinson and Company, Franklin Lakes, NJ) containing the β-lactams and appropriately diluted inhibitors. The final concentration of DMSO was maintained at 2% in the assays. The tested plates were then incubated at 35°C for 16 to 20 h. The MIC value was determined as the lowest concentration of tested β-lactams where no bacterial growth was visibly observed. The optical density at 600 nm (OD600) value was measured using a plate reader for drawing the heat maps. The FIC index value was calculated using the following equation: FIC index=MIC of β-lactam with inhibitor/MIC of β-lactam alone+MIC of inhibitor with β-lactam/MIC of inhibitor alone
Unless noted otherwise, the FIC index was defined as the lowest value among all obtained values. The synergistic effect was defined as the effect observed when the FIC index value was ≤0.5.

The values below come from article PMC7078479, “Sulfamoyl Heteroarylcarboxylic Acids as Promising Metallo-β-Lactamase Inhibitors for Controlling Bacterial Carbapenem Resistance” (mBio, 2020).

Usually Ki stands for a measure of affinity in units of concentration, obtained from inhibition or displacement. By MIC is commonly meant the lowest concentration that inhibits growth of the organism.

T1 sequence (C7C422 29-270 limits assumed): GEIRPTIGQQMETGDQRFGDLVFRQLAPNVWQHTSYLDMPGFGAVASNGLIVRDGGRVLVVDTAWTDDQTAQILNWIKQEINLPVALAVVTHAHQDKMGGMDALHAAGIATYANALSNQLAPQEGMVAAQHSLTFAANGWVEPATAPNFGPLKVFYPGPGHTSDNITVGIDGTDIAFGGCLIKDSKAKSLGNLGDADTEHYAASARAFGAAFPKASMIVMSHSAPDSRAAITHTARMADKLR

As to `NS(=O)(=O)c1sccc1C(=O)O` [Compound 1], the Ki came out at 7.69 µM at NDM-1, 34.1 µM at IMP-1 and 15.5 µM at VIM-2.

Take `Cc1c(C(=O)O)c(S(N)(=O)=O)c(C)n1C1CC1` [Compound 9, 1-cyclopropyl-2,5-dimethyl-4-sulfamoylpyrrole-3-carboxylic acid]: the results for the Ki at NDM-1, at IMP-1 and on VIM-2 were 4.85 µM, 14.1 µM and 1.7 µM, respectively.

In the case of `N[C@H](CN[C@H](CN[C@@H](CC(=O)O)C(=O)O)C(=O)O)C(=O)O` [AMA, Aspergillomarasmine A], in assay [1], the “Selectivity between IMP and NDM/VIM producers” value is “superior for NDM/VIM”.

As for `NS(=O)(=O)c1sc(Cl)cc1C(=O)O` [Compound 2], the Ki at NDM-1 is 19.3 µM; at IMP-1, 19.1 µM; at VIM-2, 2.29 µM.

For the compound `CCCc1oc(CCC)c(S(N)(=O)=O)c1C(=O)O` [Compound 5, 2,5-dipropyl-4-sulfamoylfuran-3-carboxylic acid], the Ki on NDM-1 was 0.51 µM; at IMP-1, 0.38 µM; at VIM-2, 0.46 µM.

As to `O=C(O)c1ncsc1NS(=O)(=O)c1cccnc1` [ANT431], the “Selectivity between IMP and NDM/VIM producers” value in assay [1] is “superior for NDM/VIM”.

`NCCN[C@H]1CC[C@H](CC(=O)N[C@H]2Cc3cccc(C(=O)O)c3OB2O)CC1` [VNRX-5133, taniborbactam]: in assay [1], the “Selectivity between IMP and NDM/VIM producers” value was “superior for NDM/VIM”.

`NS(=O)(=O)c1c(C2CCCC2)oc(C2CCCC2)c1C(=O)O` [Compound 6, 2,5-dicyclopentyl-4-sulfamoylfuran-3-carboxylic acid]: the Ki at NDM-1 came out at 0.25 µM; on IMP-1 it was 1.27 µM; on VIM-2, 0.76 µM.

Consider `Cc1c(C(=O)O)c(S(N)(=O)=O)c(C)n1C` [Compound 7, 1,2,5-trimethyl-4-sulfamoylpyrrole-3-carboxylic acid], for which the values for the Ki at NDM-1, at IMP-1 and on VIM-2 were 9.08 µM, 1.23 µM and 0.42 µM, respectively.

In the case of `CCc1oc(CC)c(S(N)(=O)=O)c1C(=O)O` [Compound 4, 2,5-diethyl-4-sulfamoylfuran-3-carboxylic acid], the figures for the Ki at NDM-1, at IMP-1 and at VIM-2 were 0.92 µM, 0.3 µM and 1.01 µM, respectively.

For `Cc1c(C(=O)O)c(S(N)(=O)=O)c(C)n1-c1ccccc1` [Compound 10, 2,5-dimethyl-1-phenyl-4-sulfamoylpyrrole-3-carboxylic acid], the Ki stood at 10.2 µM on NDM-1, 7.51 µM on IMP-1 and 20.8 µM at VIM-2.

Regarding `O=C(O)/C(S)=C/c1c(Cl)ccc(Cl)c1Cl` [ML302F], the “Selectivity between IMP and NDM/VIM producers” value in assay [1] is given as “superior for IMP”.

Regarding `CN1CCN(NC(=O)CN2C(=O)/C(=C/c3c(Cl)ccc(Cl)c3Cl)SC2=S)CC1` [ML302], the “Selectivity between IMP and NDM/VIM producers” value in assay [1] is on record as “superior for IMP”.

For the compound `CC/C(C(=O)[O-])=C(\CC)C(=O)[O-].[Na+].[Na+]` [ME1071], the “Selectivity between IMP and NDM/VIM producers” value in assay [1] was “superior for IMP”.

For `CC(C)(O/N=C(\C(=O)N[C@@H]1C(=O)N2C(C(=O)[O-])=C(C[n+]3ccccc3)CS[C@H]12)c1csc(N)n1)C(=O)O` [CAZ, ceftazidime, reference compound], the MIC in the assay on E. coli DH5α/pBC-VIM-2 was 16 µg/mL.
